Data: the NIST ThermoML archive (doi:10.1021/je500424b)
± gives the expanded uncertainty stated by the source.

Details: Gas, Cylindrical cavity resonance method

C=CC [propene]
Details | speed of sound [m/s]
260 K, 164.45 kPa | 238.03 ± 0.071
260 K, 185.32 kPa | 237.15 ± 0.071
260 K, 206.56 kPa | 236.23 ± 0.071
260 K, 227.97 kPa | 235.29 ± 0.071
260 K, 248.96 kPa | 234.36 ± 0.071
260 K, 275.35 kPa | 233.17 ± 0.071
260 K, 293.11 kPa | 232.48 ± 0.07
270 K, 144.04 kPa | 243.6 ± 0.072
270 K, 173.01 kPa | 242.51 ± 0.071
270 K, 206.19 kPa | 241.23 ± 0.071
270 K, 236.28 kPa | 240.06 ± 0.071
270 K, 262.89 kPa | 239 ± 0.071
270 K, 263.03 kPa | 239 ± 0.071
270 K, 302.89 kPa | 237.39 ± 0.071
270 K, 333.53 kPa | 236.13 ± 0.071
270 K, 361.31 kPa | 234.96 ± 0.071
270 K, 389.41 kPa | 233.76 ± 0.071
280 K, 149.29 kPa | 247.97 ± 0.072
280 K, 188.35 kPa | 246.64 ± 0.072
280 K, 226.29 kPa | 245.31 ± 0.072
280 K, 267.79 kPa | 243.84 ± 0.071
280 K, 308.73 kPa | 242.37 ± 0.071
280 K, 354.13 kPa | 240.69 ± 0.071
280 K, 397.57 kPa | 239.06 ± 0.071
280 K, 438.3 kPa | 237.49 ± 0.071
280 K, 438.33 kPa | 237.49 ± 0.071
280 K, 478.89 kPa | 235.89 ± 0.071
280 K, 519.72 kPa | 234.24 ± 0.071
280 K, 556.25 kPa | 232.73 ± 0.071
290 K, 141.01 kPa | 252.63 ± 0.072
290 K, 199.13 kPa | 250.82 ± 0.072
290 K, 257.68 kPa | 248.96 ± 0.072
290 K, 313.39 kPa | 247.15 ± 0.072
290 K, 372.8 kPa | 245.18 ± 0.071
290 K, 434.96 kPa | 243.06 ± 0.071
290 K, 495.22 kPa | 240.95 ± 0.071
290 K, 553.22 kPa | 238.87 ± 0.071
290 K, 616.94 kPa | 236.51 ± 0.071
290 K, 672.07 kPa | 234.4 ± 0.071
290 K, 677.98 kPa | 234.17 ± 0.071
290 K, 695.54 kPa | 233.48 ± 0.07
300 K, 134.71 kPa | 257.09 ± 0.073
300 K, 182.3 kPa | 255.75 ± 0.073
300 K, 260.81 kPa | 253.49 ± 0.072
300 K, 344.4 kPa | 251.01 ± 0.072
300 K, 425.25 kPa | 248.56 ± 0.072
300 K, 505.72 kPa | 246.04 ± 0.071
300 K, 582.66 kPa | 243.56 ± 0.071
300 K, 661.1 kPa | 240.94 ± 0.071
300 K, 740.35 kPa | 238.22 ± 0.071
300 K, 826.4 kPa | 235.15 ± 0.07
300 K, 903.31 kPa | 232.29 ± 0.07
300 K, 960.98 kPa | 230.07 ± 0.07
310 K, 142.07 kPa | 261.05 ± 0.073
310 K, 235.24 kPa | 258.61 ± 0.073
310 K, 325.91 kPa | 256.18 ± 0.073
310 K, 424.89 kPa | 253.46 ± 0.072
310 K, 520.89 kPa | 250.75 ± 0.072
310 K, 623.06 kPa | 247.76 ± 0.072
310 K, 713.38 kPa | 245.04 ± 0.071
310 K, 810.73 kPa | 242.01 ± 0.071
310 K, 906.76 kPa | 238.9 ± 0.071
310 K, 952.69 kPa | 237.37 ± 0.071
320 K, 142.67 kPa | 265.1 ± 0.074
320 K, 210.07 kPa | 263.49 ± 0.073
320 K, 279.66 kPa | 261.81 ± 0.073
320 K, 349.85 kPa | 260.08 ± 0.073
320 K, 425.07 kPa | 258.19 ± 0.073
320 K, 509.07 kPa | 256.04 ± 0.072
320 K, 596.12 kPa | 253.77 ± 0.072
320 K, 677.09 kPa | 251.6 ± 0.072
320 K, 756.59 kPa | 249.42 ± 0.072
320 K, 834.83 kPa | 247.22 ± 0.071
320 K, 905.02 kPa | 245.21 ± 0.071
320 K, 976.94 kPa | 243.09 ± 0.071
330 K, 151.93 kPa | 268.88 ± 0.074
330 K, 227.66 kPa | 267.22 ± 0.074
330 K, 302.35 kPa | 265.55 ± 0.074
330 K, 380.89 kPa | 263.77 ± 0.073
330 K, 455.62 kPa | 262.04 ± 0.073
330 K, 550.82 kPa | 259.81 ± 0.073
330 K, 642.65 kPa | 257.6 ± 0.073
330 K, 732.74 kPa | 255.39 ± 0.072
330 K, 821.61 kPa | 253.16 ± 0.072
330 K, 912.04 kPa | 250.84 ± 0.072
330 K, 1001.4 kPa | 248.5 ± 0.072

O=C=O [carbon dioxide]
Details | speed of sound [m/s]
260 K, 317.37 kPa | 249.8 ± 0.051
260 K, 379.95 kPa | 249.06 ± 0.051
260 K, 434.17 kPa | 248.41 ± 0.05
260 K, 501.31 kPa | 247.6 ± 0.05
260 K, 562.69 kPa | 246.84 ± 0.05
260 K, 626.77 kPa | 246.05 ± 0.05
260 K, 701.21 kPa | 245.12 ± 0.05
260 K, 760.19 kPa | 244.37 ± 0.05
260 K, 822.03 kPa | 243.58 ± 0.05
260 K, 884.92 kPa | 242.76 ± 0.049
270 K, 305.05 kPa | 254.61 ± 0.051
270 K, 362.27 kPa | 254.01 ± 0.051
270 K, 460.73 kPa | 252.96 ± 0.051
270 K, 556.68 kPa | 251.92 ± 0.051
270 K, 644.89 kPa | 250.96 ± 0.051
270 K, 732.1 kPa | 250 ± 0.051
270 K, 819.89 kPa | 249.01 ± 0.051
270 K, 906.73 kPa | 248.03 ± 0.05
270 K, 977.38 kPa | 247.22 ± 0.05
280 K, 280.31 kPa | 259.38 ± 0.052
280 K, 362.38 kPa | 258.61 ± 0.052
280 K, 453.25 kPa | 257.75 ± 0.052
280 K, 537.04 kPa | 256.95 ± 0.052
280 K, 621.46 kPa | 256.13 ± 0.052
280 K, 692.2 kPa | 255.44 ± 0.052
280 K, 798.98 kPa | 254.39 ± 0.052
280 K, 884.2 kPa | 253.55 ± 0.051
280 K, 981.82 kPa | 252.56 ± 0.051
290 K, 228.71 kPa | 264.19 ± 0.053
290 K, 282.86 kPa | 263.73 ± 0.053
290 K, 355.64 kPa | 263.12 ± 0.053
290 K, 421.86 kPa | 262.56 ± 0.053
290 K, 490.56 kPa | 261.98 ± 0.053
290 K, 571.6 kPa | 261.28 ± 0.053
290 K, 655.16 kPa | 260.56 ± 0.053
290 K, 733.65 kPa | 259.88 ± 0.053
290 K, 819.49 kPa | 259.12 ± 0.052
300 K, 280.85 kPa | 268.06 ± 0.054
300 K, 340.26 kPa | 267.62 ± 0.054
300 K, 415.37 kPa | 267.05 ± 0.054
300 K, 500.85 kPa | 266.39 ± 0.054
300 K, 583.49 kPa | 265.76 ± 0.054
300 K, 663.9 kPa | 265.13 ± 0.054
300 K, 755.49 kPa | 264.42 ± 0.053
300 K, 847.25 kPa | 263.7 ± 0.053
300 K, 927.15 kPa | 263.07 ± 0.053
300 K, 1017.3 kPa | 262.36 ± 0.053
304.09 K, 434.91 kPa | 268.66 ± 0.054
304.09 K, 544.65 kPa | 267.86 ± 0.054
304.09 K, 772.25 kPa | 266.17 ± 0.054
304.09 K, 868.88 kPa | 265.45 ± 0.054
304.09 K, 968.58 kPa | 264.69 ± 0.054
312.75 K, 394.2 kPa | 272.63 ± 0.055
312.75 K, 441.68 kPa | 272.31 ± 0.055
312.75 K, 534.77 kPa | 271.69 ± 0.055
312.75 K, 636.23 kPa | 271 ± 0.055
312.75 K, 729.55 kPa | 270.37 ± 0.055
312.75 K, 858.54 kPa | 269.49 ± 0.054
312.75 K, 959.38 kPa | 268.8 ± 0.054
322.75 K, 314.03 kPa | 277.28 ± 0.056
322.75 K, 412.26 kPa | 276.69 ± 0.056
322.75 K, 522.36 kPa | 276.02 ± 0.056
322.75 K, 624.83 kPa | 275.4 ± 0.056
322.75 K, 735.59 kPa | 274.72 ± 0.055
322.75 K, 832.63 kPa | 274.13 ± 0.055
322.75 K, 929.78 kPa | 273.53 ± 0.055
332.75 K, 316.28 kPa | 281.3 ± 0.057
332.75 K, 415.5 kPa | 280.76 ± 0.057
332.75 K, 520.66 kPa | 280.19 ± 0.056
332.75 K, 544.84 kPa | 280.05 ± 0.056
332.75 K, 664.72 kPa | 279.39 ± 0.056
332.75 K, 755.5 kPa | 278.89 ± 0.056
332.75 K, 857.33 kPa | 278.33 ± 0.056
332.75 K, 958.15 kPa | 277.78 ± 0.056
